Read-outs that look alike come from different tables or passages of the source.
Columns and labels:
[1] = tested on: experimentally developed cataract induced by L-buthionine sulfoximine; test: Protective effect on experimental cataract induced by L-buthionine sulfoximine; assay type: in vivo, mice; conditions: 16th day after birth
Source text: The cataract development rate in the table means the ratio of the experimental animals developing cataract to all the animals examined (11 to 12 mice per group) and the cataractous eye rate means the ratio of cataractous eyes to the whole number of eyes examined.

mouse newborns = conditions: for Surviving rate: after the ending of administration; for Effect on increment of animals' body weight suppressed by the toxicity of BSO: mouse, in vivo
Description: Experimental cataract was prepared according to the method of Calvin et al., Science, vol. 233, pp 553-555 (1986). More particularly, L-buthioninesulfoximine was administered subcutaneously to the ICR male mice at a dose of 4 mmol/kg for 3 successive days from the 9th day to the 11th day after birth every 2.5 hours 4 times a day to cause cataract. The rate of cataractgenesis was determined on the 16th day after birth. The test compounds were also given subcutaneously for 3 days from the 9th day to the 11th day after birth 4 times a day 1 hour before the administration of L-buthionine sulfoximine and thereafter the test compounds studied only were subcutaneously given 4 times a day at an interval of 2.5 hours on the consecutive 12th and 13th days after birth and the protective effect of the test compound on cataract formation was examined on the 16th day after birth. As the control compounds, glutathione, glutathione monoethyl ester, and γ-L-glutamyl-L-cysteine were also examined.
Acute toxicity of the present compound was examined where it is administered according to the schedule of Example 9 and compared with there of controls, glutathione, glutathione monoethyl ester, and γ-L-glutamyl-L-cysteine.

liver cells [2] = test: Recovery of glutathione levels of liver cells after carbon tetrachloride treatment; assay type: cell-based, mice; conditions: 100 = before treatment
Description: After carbon tetrachloride was added to the cultured liver cells at a concentration of 0.5 μl/ml, culture was continued for 1 hour. […] One hour later, the change of the cellular glutathione level was measured.

ICR male mice [3] = test: Action to increase tissue glutathione levels in mice; assay type: in vivo; conditions: 9-day old mice
Description: ICR male mice (9-day old) were subcutaneously given 2.5 mmol/kg of the compound of this invention (r-Glu-Cys OET) or control compounds (glutathione (GSH), γ-L-glutamyl-L-cysteine (r-Glu-Cys)) four times at 2.5-hour intervals. The mice were dissected and their livers and kidneys were removed before the administration and every 2.5 hour after the administration to have their glutathione (GSH) level determined. […]

ICR male mice [4] = test: Detoxification of renal toxicity induced by cisplatin (BUN); assay type: in vivo; conditions: cisplatin 20 mg/kg i.p. + compound 2.5 mmol/kg i.p. 4 times a day for 5 days; one week after cisplatin
Source text: The control groups were given saline instead of the present compound.

ICR male mice [5] = test: Mitigation of decrease of tissue glutathione levels, compound and L-buthionine sulfoximine given alternately to mice; assay type: in vivo; conditions: 2.5 mmol/kg s.c. alternately with L-buthionine sulfoximine 4 mmol/kg; versus saline
Description: The compound of this invention was administered in the same way as Example 6, and L-buthionine sulfoximine (BSO) was administered likewise in dosage of 4 mmol/kg one hour after every administration of said compound. The contents of glutathione in the livers and kedneys were measured according to the methods described in Example 6 every 2.5 hours after the initial administration of the present compound. As controls, saline was administered in place of the present compound to take the similar measurements. FIGS. 2A and 2B shown the results.

liver cells [6] = test: Action to increase the glutathione levels in the liver cells (primary cultured hepatocytes); assay type: cell-based, mice; conditions: 1 mM, 100 = before addition
Description: Hepatocyte (sample) was prepared according to the method of Nakamura et al. published in the Protein, Nucleic Acid, and Enzyme, vol. 24, pp 55-76 (1981), partly adopting the method of Wang et al. reported in the In Vitro, vol. 21, pp 526-530 (1985). The liver of mice was purfused with 0.05% collagenase, and cells were collected by centrifugation, and were further centrifuged with percoll to collect the parenchymal hepatocytes. The obtained hepatocytes were dispersed in the Williams' medium E containing 10% bovine fetal serum, dexamethasone (10^-6 M), insulin (1 μg/ml), and antibiotic, and were inoculated into the culture plate at a density of 1×10^5 cells/0.2 ml/cm^2. After unattached cells were removed once 1.5 hours later, the cultivation was continued at 37° C. in an atomosphere of 5% CO2 -95% air. The compound of this invention was added to the culture system to a concentration of 1 mM to measure the time lapsed changes of the cellular glutathione level according to the method reported by Owens and Belcher, Biochem. J., vol. 94, pp 705-711 (1965) and Tietze, Anal. Biochem., vol. 27, pp 502-522 (1969). The similar measurements were also made without the addition of the compound for comparison.

ICR male mice [7] = test: Recovery of tissue glutathione levels in mice pretreated with L-buthionine sulfoximine; assay type: in vivo; conditions: 2.5 mmol/kg s.c. 4 times, day after L-buthionine sulfoximine 4 mmol/kg x4
Description: ICR male mice (9-day old) were given L-buthionine sulfoximine in dosage of 4 mmol/kg four times at an interval of 2.5 hours to decrease their tissue glutathione levels beforehand. The next day, the mice were given subcutaneously 2.5 mmol/kg of the present compound or saline 4 times at an interval of 2.5 hours. Glutathione monoethyl ester (GSHOET) was also given likewise in dosage of 2.5 mmol/kg as a control. The contents of glutathione in the livers and kidneys were measured according to the methods described in Example 6.

liver cells [8] = test: Recovery of cellular glutathione levels after decrease by D,L-buthionine sulfoximine and removal of the inhibitor; assay type: cell-based, mice; conditions: untreated = 100
Description: (§1) D, L-buthionine sulfoximine was added to the cultured liver cells to a density of 0.5 mM and cultivation was carried on for 16 hours. […] The changes of cellular glutathione levels were measured at that time. Thereafter the compounds studied were removed from the respective cultures whose culture media were then replaced with new ones containing carbon tetrachloride at a density of 0.5 μl/ml. After 1-hour cultivation, the action to prevent the necrosis of liver cells was examined by measuring the GPT activity of the respective culture supernatants and Trypan Blue staining test.
(§2) In Table 3, the changes of cellular glutathione levels are expressed by relative values based on the untreated value set at 100 and the action to prevent the necrosis of liver cells is indicated by the GPT activity of the culture supernatant and survival rate.

liver cells [9] = test: Prevention of necrosis of liver cells by carbon tetrachloride (GPT activity, Trypan Blue staining); assay type: cell-based, mice; conditions: 1 mM for 2 hours after D,L-buthionine sulfoximine removal, then carbon tetrachloride 0.5 μl/ml for 1 hour; for Survival rate: Trypan Blue
Description: as §1, §2

liver cells [10] = test: Mitigation of decrease in glutathione levels in liver cells on coexistence with D,L-buthionine sulfoximine; assay type: cell-based, mice; conditions: 13 hours later, 100 = before addition
Description: The cultured liver cells were cultured for 13 hours after the addition of D,L-buthionine sulfoximine to the concentration of 0.3 mM and the present compound to the concentration of 1 mM and then the levels of cellular glutathione were measured. The similar measurements were made on the controls in which nothing was added and in which D,L-buthionine sulfoximine only was added.

[11] = cited from earlier work
[12] = L-buthionine sulfoximine 4 mmol/kg alone
[13] = 2.5 mmol/kg subcutaneously four times at 2.5-hour intervals
[14] = L-buthionine sulfoximine + compound 1.25 mmol/kg s.c.
[15] = L-buthionine sulfoximine + compound 2.50 mmol/kg s.c.
[16] = 1 mM added for 2 hours after removal of D,L-buthionine sulfoximine (0.5 mM, 16 hours)
[17] = L-buthionine sulfoximine + compound 1.25 mmol/kg
[18] = L-buthionine sulfoximine + compound 2.5 mmol/kg

SMILES: CCCCS(=N)(=O)CCC(N)C(=O)O [L-buthionine sulfoximine, reference compound]
- Cataract development rate [1, 12]: 91.7%
- Cataractous eye rate [1, 12]: 91.7%
- Surviving rate (mouse newborns; [12]): 100%

SMILES: ClC(Cl)(Cl)Cl [carbon tetrachlodie, carbon tetrachloride, reference compound]
- Cellular glutathione level (relative value) (liver cells [2]; after carbon tetrachloride 0.5 μl/ml, 1 hour): 33

SMILES: CCOC(=O)[C@H](CS)NC(=O)CC[C@H](N)C(=O)O [γ-L-glutamyl-L-cysteine ethyl ester]
- Tissue glutathione level, kidney (FIG. 1B) (ICR male mice [3]; [13]): far more excellent effect than glutathione and γ-L-glutamyl-L-cysteine in increasing the tissue glutathione levels
- Tissue glutathione level, liver (FIG. 1A) (ICR male mice [3]; [13]): far more excellent effect than glutathione and γ-L-glutamyl-L-cysteine in increasing the tissue glutathione levels
- SH levels in eyeballs, DTNB method (FIG. 1C) (ICR male mice [3]; 5 mmol/kg): improve the SH levels remarkably
- BUN (ICR male mice [4]): 35.7 mg/dL
- Cataract development rate [1, 14]: 50.0%
- Cataractous eye rate [1, 14]: 41.7%
- Cataract development rate [1, 15]: 0%
- Cataractous eye rate [1, 15]: 0%
- Cellular glutathione level (relative value) (liver cells [2]; 1 mM added after removal of carbon tetrachloride, one hour later): 67
- Tissue glutathione level, kidney (FIG. 2B) (ICR male mice [5]): mitigate the decrease of tissue glutathione levels
- Tissue glutathione level, liver (FIG. 2A) (ICR male mice [5]): mitigate the decrease of tissue glutathione levels
- Cellular glutathione level (relative value) (liver cells [6]; 0.5 hours): 140
- Cellular glutathione level (relative value) (liver cells [6]; 1 hour): 170
- Cellular glutathione level (relative value) (liver cells [6]; 2 hours): 200
- Recovery of tissue glutathione level, kidney (FIG. 3B) (ICR male mice [7]): far more excellent effect in making the tissular glutathion level recover to the normal level as compared with glutathione monoethyl ester
- Recovery of tissue glutathione level, liver (FIG. 3A) (ICR male mice [7]): same effectiveness as glutathione monoethyl ester
- Cellular glutathion level (relative value) (liver cells [8]; [16]): 50
- Effect on increment of animals' body weight suppressed by the toxicity of BSO (mouse newborns): showed an effect to mitegate suppressed increment of animals' body weight
- GPT activity of culture supernatant (liver cells [9]): 3 until/ml
- Survival rate (liver cells [9]): 100%
- Cellular glutathione level (relative value) (liver cells [10]; coexistence of D,L-buthionine sulfoximine 0.3 mM and compound 1 mM): 30

SMILES: N[C@@H](CCC(=O)N[C@@H](CS)C(=O)NCC(=O)O)C(=O)O [Glutathione, glutathione]
- half life in blood [11]: several minutes
- Cataract development rate [1, 14]: 75.0%
- Cataractous eye rate [1, 14]: 70.8%
- Cellular glutathion level (relative value) (liver cells [8]; [16]): 10
- Surviving rate (mouse newborns; [17]): 100%
- Surviving rate (mouse newborns; [18]): 50%
- Effect on increment of animals' body weight suppressed by the toxicity of BSO (mouse newborns): such effect was not seen
- GPT activity of culture supernatant (liver cells [9]): 60 until/ml
- Survival rate (liver cells [9]): 10%

SMILES: CCOC(=O)[C@H](CSSC[C@H](NC(=O)CC[C@H](N)C(=O)O)C(=O)OCC)NC(=O)CC[C@H](N)C(=O)O [γ-L-glutamyl-L-cystein ethyl ester of oxidized type dimer]
- Cataract development rate [1, 15]: 30.0%
- Cataractous eye rate [1, 15]: 35.0%
- Surviving rate (mouse newborns; [18]): 100%

SMILES: CCCCS(=N)(=O)CCC(N)C(=O)O [D,L-buthionine sulfoximine, D,L-buthionine-sulfoximine, reference compound]
- Cellular glutathion level (relative value) (liver cells [8]; D,L-buthionine sulfoximine 0.5 mM, 16 hours): 1
- Cellular glutathione level (relative value) (liver cells [10]; D,L-buthionine sulfoximine 0.3 mM alone): 17

SMILES: N[C@@H](CCC(=O)N[C@@H](CS)C(=O)O)C(=O)O [γ-L-glutamyl-L-cysteine]
- Cataract development rate [1, 14]: 66.7%
- Cataractous eye rate [1, 14]: 77.8%
- Cellular glutathion level (relative value) (liver cells [8]; [16]): 10
- Surviving rate (mouse newborns; [17]): 75%
- Surviving rate (mouse newborns; [18]): 0%
- Effect on increment of animals' body weight suppressed by the toxicity of BSO (mouse newborns): such effect was not seen
- GPT activity of culture supernatant (liver cells [9]): 60 until/ml
- Survival rate (liver cells [9]): 10%

Source: patent publication US4927808A, “γ-L-glutamyl-L-cysteine ethyl ester and pharmaceutical compositions containing the same as an effective ingredient” (Teijin Limited, priority 1986, dated 1990)
